Data published in patent publication US6495376B1, “Methods and compositions for regulating protein-protein interactions” (Beth Israel Deaconess Medical Center, priority 1999, dated 2002).
“And” between values parts separate entries of the source, which are not always exact repeats. Identical values can stand only once. Like-named read-outs stand apart in the source and are kept apart here.

Assays:
WFYpSPFLE (Pintide) = assay: Fluorescence anisotropy (polarization) binding to fluorescein-labeled phosphorylated Pintide analogue; settings: for binding to Pintide (in words): fluorescence anisotropy
Excerpt: To determine the affinity of Pin1, and its WW or PPIase domain for phosphopeptides, peptides were labeled with fluorescein and their interactions with Pin1 measured using quantitative fluorescence anisotrophy. To prevent nonspecific labeling, a Pintide analogue (WFYpSPFLE) SEQ ID NO: 9 was used, which binds Pin1 with a high affinity based on the peptide library screen as described by (Lu, K. P. et al., U.S. Ser. No. 60/058,164 (1997), the teachings of which are incorporated herein in their entirety.
(§1) Pintide and its nonphosphorylated counterpart were synthesized and incubated with GST-Pin1 or the GST-WW-domain of Pin1 in a binding buffer, using established procedures (Shen, M. et al., Genes & Dev 12:706 (1998)). After a 1 hr incubation, mitotic HeLa cell extracts were added and subjected to GST pull down experiments, followed by immunoblotting analysis using the MPM-2 antibody. To obtain semi-quantitative data, films of immunoblots were scanned at the region of 55 kDa, the major Pin1-binding protein, and data analyzed using ImageQuan (ScanJet II CX). The peptide binding constants were measured using a fluorescence polarization assay (Jiskoot, W. et al., Anal Biochem 196:421 (1991)). Peptides were fluorescein labeled at the N-terminus using the Fluorescein Amine Labeling Kit (Pan Vera Corp.) and purified by TLC according to the manufacturer's […]. To prevent nonspecific labeling, a Pintide analogue (WFYpSPFLE) SEQ ID NO: 8 and the nonphosphorylated control were used. Various concentrations of Pin1 and its mutant proteins were incubated with 0.1 μM of the labeled peptides in a binding buffer containing 50 mM HEPES, pH 7.4, 100 mM NaCl, 2% glycerol. Fluorescence polarization values were obtained using a Pan Vera Beacon 2000 system, as described by the manufacturer.

[1] = tested on: MPM-2 antigens (mitotic phosphoproteins) of mitotic HeLa cell extracts; assay: GST pulldown from mitotic HeLa cell extracts, MPM-2 immunoblotting (phosphoprotein-binding activity); settings: for Phosphoprotein binding activity: GST-fusion proteins with mitotic extracts, MPM2 antibody; for binding to mitotic phosphoproteins / MPM-2 antigens (in words): mitotic HeLa cell extracts; for effect of phosphorylation by PKA on interaction with MPM2 antigens: protein phosphorylated by PKA before binding
Description: GST-fusion proteins containing the WW-domain, PPIase-domain or the entire Pin 1 protein were prepared and incubated with interphase (G1/S arrested; Control) or dividing (M phase) HeLa cell extracts using well-known procedures (Lu, K. P., et al., Nature 380:544 (1996); (Shen, M., et al., Genes & Devl. 12:706 (1998)). Briefly, HeLa cells were arrested at the G1/S boundary or mitosis by incubation with thymidine and aphidicolin or nocodazole for 16 h, respectively. The cells were lysed and supernatants incubated with 10 μl of agarose beads containing GST-Pin1; GST-WW-domain of Pin1; GST-PPIase domain of Pin1; or control GST for 2 h at 4° C. The phosphorylated precipitated proteins were washed 5 times in buffer containing 1% Triton X-100 before subjecting to immunoblotting analysis using MPM-2 antibody, as described previously (Yaffe, M. B. et al., Science 278:1957 (1997); Schukowski, et al., Biochemistry 37:5566 (1998); Shen, M. et al., Genes & Dev 12:706 (1998)). MPM-2 recognizes a subset of mitotic phosphoproteins including Pin1-binding proteins such as cdc25.
as §1
To examine the effect of Pin1 phosphorylation on Pin1 binding to ligands, Pin1 and Pin1 mutant proteins were incubated with the catalytic subunit of PKA and PKC (a mixture of α, β and γ, UBI) in a kinase reaction buffer containing 500 μM cold ATP at 30° C. for 15 min (Lu, K. P. et al., Anal. Biochem. 196:421 (1991)). The reactions were stopped by adding SDS sample buffer and reaction products separated on SDS-gels, followed by autoradiography. Pin1 proteins were isolated and used to bind MPM-2 antigens from mitotic extracts from HeLa cells, as previously described (Shen, M., et al., Genes & Dev 12:706 (1998)). Experiments were also performed with PKA and PKC, casein kinase, cyclin B/Cdc2 and SRPK1 kinases.

phosphorylated tau = assay: GST-Pin1 pulldown of tau; assay type: binding; settings: for binding to Cdc2 phosphorylated tau: tau phosphorylated by Cdc2 in vitro
Chain of phosphorylated tau (P10636 45-216 isoform P10636-2 limits assumed): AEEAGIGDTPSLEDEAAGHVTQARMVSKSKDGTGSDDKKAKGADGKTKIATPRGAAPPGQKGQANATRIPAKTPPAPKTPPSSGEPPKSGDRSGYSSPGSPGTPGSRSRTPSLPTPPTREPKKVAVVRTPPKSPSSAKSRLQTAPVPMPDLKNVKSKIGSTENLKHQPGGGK
Excerpt: Pin1 binds and regulates the function of a defined subset of mitotic phosphoproteins by interacting with conserved phosphorylated Ser/Thr-Pro motifs that are also recognized by MPM-2, a mitosis-specific, phosphorylation-dependent monoclonal antibody (mAb) (Yaffe, M. B. et al., Science 278:1957-1960 (1997); Shen, M. et al., Genes Dev. 12:706-720 (1 998)). Tau is an MPM-2 antigen phosphorylated on multiple Ser/Thr-Pro motifs during mitosis (Illenberger, S. et al., Mol Biol Cell 9:1495-1512 (1998)). Experiments were undertaken to determine whether Pin1 binds tau. Tau isoform was either synthesized by in vitro transcription and translation in the presence of ^35S-Met or produced in bacteria as an N-terminal His-tagged protein, followed by purification using NTA-Ni columns (Yaffe, M. B. et al., Science 278:1957-1960 (1997); Shen, M. et al., Genes Dev. 12:706-720 (1998)). To generate interphase- and mitosis-specific phosphorylated form of tau, tau was incubated with Xenopus interphase and mitotic extracts, respectively (Shen, M. et al., Genes Dev. 12:706-720 (1998)). To prepare Cdc2 phosphorylated tau, purified recombinant tau was incubated with purified cyclin B/Cdc2 (UBI) for 6 to 12 hr at room temperature in a buffer containing 500 μM cold ATP, plus trace [^32P]-ATP in some experiments, (Vincent, I. et al., J Neurosci 17:3588-3598 (1997)).
Pin1 interactions with tau in AD brains were examined using a GST-Pin1 pulldown assay (Shen, M. et al., Genes Dev. 12:706-720 (1998)). Glutathione beads containing GST or GST-Pin1 were incubated with normal or AD brain extracts, or PHFs purified (Vincent, I. J. and Davies, P. Proc Natl Acad Sci USA 89:2878-2882 (1992)), and proteins associated with the beads were subjected to immunoblotting analysis using CP27, which recognizes all forms of tau. Recombinant and mutant Pin1 proteins were produced as N-terminal GST or His-tagged fusion proteins (Shen, M. et al., Genes Dev. 12:706-720 (1998)). PHFs were purified by immunoaffinity chromatography (Vincent, I. J. and Davies, P. Proc Natl Acad Sci USA 89:2878-2882 (1992)).
To determine whether Pin1 interacts with pT231-tau, GST-Pin1 beads were used to isolate tau from AD brain extracts or PHFs and T231 phosphorylation detected using CP9. Tau isolated by Pin1 beads was strongly immunoreactive with CP9. […] Thus, Pin1 binds pT231-tau through its WW-domain.

[2] = high affinity binding site, read-out: WFYpSPFLE Kd(μM) High affinity

## Pin1 WW-domain: N-terminal WW-domain (amino acids 1-54) of Pin1 (MADEEKLPPGWEKRMSRSSGRVYYFNHITNASQWERPSGNSSSGGKNGQGEPAR; left off: a dimerising Fc or GST)
WFYpSPFLE (Pintide); GST-WW-domains, fluorescein-labeled peptide, average of three independent experiments, read-out: Kd (μM) Pintide WFYpSPFLE
  Kd: 1 µM
WFYpSPFLE (Pintide)
  binding to Pintide (in words): bound Pintide
WFYpSPFLE (Pintide); [2]
  Kd: 1.2 µM and 1 µM
[1]
  Phosphoprotein binding activity: + (binding was detected)
  binding to mitotic phosphoproteins / MPM-2 antigens (in words): strong binding
  effect of phosphorylation by PKA on interaction with MPM2 antigens: completely abolished
Phosphorylated tau
  binding to Cdc2 phosphorylated tau: bound Cdc2 phosphorylated tau

## Pin1: wild-type human prolyl isomerase (PPIase) Pin1 with N-terminal WW-domain; tag cleaved in Table 2
WFYpSPFLE (Pintide)
  binding to Pintide (in words): bound Pintide
WFYpSPFLE (Pintide); [2]
  Kd: 1.2 µM
WFYpSPFLE (Pintide); low affinity binding site, read-out: WFYpSPFLE Kd(μM) Low affinity
  Kd: 11 µM
[1]
  Phosphoprotein binding activity: + (binding was detected)
  binding to mitotic phosphoproteins / MPM-2 antigens (in words): strong binding
  effect of phosphorylation by PKA on interaction with MPM2 antigens: completely abolished
Phosphorylated tau; AD brain extracts, PHFs or age-matched normal brain extracts
  binding to tau of brain extracts: did not bind tau in age-matched normal brain extracts
Phosphorylated tau; interphase or mitotic extracts
  binding to tau incubated with Xenopus extracts: did bind tau that was phosphorylated by mitotic extracts
Phosphorylated tau
  binding to Cdc2 phosphorylated tau: bound Cdc2 phosphorylated tau
